Experimental data: PubChem BioAssay AID248 (DTP/NCI, 2004)
Toxic doses and inconclusive results are not listed. Rule as the data show it: active = T/C of 150% or more; inactive = T/C below 125%.

System: L1210 leukemia ip in BDF1 mice, survival T/C
Assay: NCI In Vivo Anticancer Drug Screen. Data for tumor model L1210 Leukemia (intraperitoneal) in B6D2F1 (BDF1) mice
Details: endpoint: mean survival time, higher = longer survival
How it was run: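 Mice bearing the transplanted tumor received compound or vehicle. Survival of the treated group was divided by that of the vehicle-treated control group to give the ratio.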

[1] = dose: 100.0 mg/kg/injection, schedule: Q01DX001 (ip), vehicle: saline
[2] = dose: 200.0 mg/kg/injection, schedule: Q01DX001 (ip), vehicle: saline
[3] = dose: 400.0 mg/kg/injection, schedule: Q01DX001 (ip), vehicle: saline
[4] = dose: 100.0 mg/kg/injection, schedule: Q01DX009 (ip), vehicle: saline with Tween-80
[5] = dose: 200.0 mg/kg/injection, schedule: Q01DX009 (ip), vehicle: saline with Tween-80
[6] = dose: 100.0 mg/kg/injection, schedule: Q04DX003 (ip), vehicle: Klucel (hydroxypropylcellulose) (HPC)
[7] = dose: 100.0 mg/kg/injection, schedule: Q04DX002 (ip), vehicle: Klucel (hydroxypropylcellulose) (HPC)
[8] = dose: 200.0 mg/kg/injection, schedule: Q04DX002 (ip), vehicle: Klucel (hydroxypropylcellulose) (HPC)
[9] = dose: 400.0 mg/kg/injection, schedule: Q04DX002 (ip), vehicle: Klucel (hydroxypropylcellulose) (HPC)
[10] = dose: 200.0 mg/kg/injection, schedule: Q04DX003 (ip), vehicle: Klucel (hydroxypropylcellulose) (HPC)

Measured: T/C

O=C1OC(c2ccccc2)=NC1(c1ccccc1)C1(c2ccccc2)N=C(c2ccccc2)OC1=O (centres undefined)
inactive: dose: 100.0 mg/kg/injection, schedule: Q04DX003 (ip), vehicle: saline with Tween-80 88 % of control | dose: 200.0 mg/kg/injection, schedule: Q04DX003 (ip), vehicle: saline with Tween-80 93 % of control | dose: 400.0 mg/kg/injection, schedule: Q04DX003 (ip), vehicle: saline with Tween-80 86 % of control

c1ccc(CCN(c2ccccc2)c2ccccc2)cc1
inactive: dose: 100.0 mg/kg/injection, schedule: Q01DX001 (ip), vehicle: carboxymethylcellulose (CMC) 100 % of control | dose: 200.0 mg/kg/injection, schedule: Q01DX001 (ip), vehicle: carboxymethylcellulose (CMC) 103 % of control | dose: 400.0 mg/kg/injection, schedule: Q01DX001 (ip), vehicle: carboxymethylcellulose (CMC) 103 % of control

O=S(=O)(c1ccccc1)c1ccc(O)cc1
inactive: dose: 50.0 mg/kg/injection, schedule: Q01DX001 (ip), vehicle: saline 95 % of control | [1] 89 % of control | [2] 108 % of control | [3] 101 % of control

CCOC(=O)c1c[n]([Hg][n]2cc(C(=O)OCC)c(Nc3ccccc3Cl)nc2=O)c(=O)nc1Nc1ccccc1Cl
inactive: dose: 3.0 mg/kg/injection, schedule: Q01DX009 (ip), vehicle: saline with Tween-80 96 % of control | dose: 6.0 mg/kg/injection, schedule: Q01DX009 (ip), vehicle: saline with Tween-80 96 % of control | dose: 12.0 mg/kg/injection, schedule: Q01DX009 (ip), vehicle: saline with Tween-80 95 % of control | dose: 12.5 mg/kg/injection, schedule: Q04DX003 (ip), vehicle: saline with Tween-80 100 % of control

CCCCCCCCCCC(N)C(=O)O (centres undefined)
inactive: dose: 12.5 mg/kg/injection, schedule: Q04DX002 (ip), vehicle: Klucel (hydroxypropylcellulose) (HPC) 104 % of control | dose: 25.0 mg/kg/injection, schedule: Q04DX002 (ip), vehicle: Klucel (hydroxypropylcellulose) (HPC) 91 % of control | dose: 50.0 mg/kg/injection, schedule: Q04DX002 (ip), vehicle: Klucel (hydroxypropylcellulose) (HPC) 88 % of control

CC(=O)Nc1ccc(N=CN(C)C)cc1
inactive: [4] 94 % of control | [5] 101 % of control

CCOC(=O)C(NC(C)=O)(C(=O)OCC)C(C)C(O)c1ccc(OC)c(OC)c1O (centres undefined)
inactive: dose: 100.0 mg/kg/injection, schedule: Q04DX003 (ip), vehicle: saline 92 % of control | dose: 200.0 mg/kg/injection, schedule: Q04DX003 (ip), vehicle: saline 113 % of control | dose: 400.0 mg/kg/injection, schedule: Q04DX003 (ip), vehicle: saline 103 % of control

Cn1c(N)c(N=CC2CC=CCC2)c(=O)n(C)c1=O (centres undefined)
inactive: dose: 50.0 mg/kg/injection, schedule: Q01DX001 (ip), vehicle: other 103 % of control | dose: 100.0 mg/kg/injection, schedule: Q01DX001 (ip), vehicle: other 97 % of control | dose: 200.0 mg/kg/injection, schedule: Q01DX001 (ip), vehicle: other 92 % of control | dose: 400.0 mg/kg/injection, schedule: Q01DX001 (ip), vehicle: other 97 % of control

O=[N+]([O-])c1ccc(N=Cc2ccccc2O)cc1
inactive: dose: 50.0 mg/kg/injection, schedule: Q01DX001 (sc), vehicle: olive oil, sesame oil, peanut oil 98 % of control | dose: 100.0 mg/kg/injection, schedule: Q01DX001 (sc), vehicle: olive oil, sesame oil, peanut oil 98 % of control | dose: 200.0 mg/kg/injection, schedule: Q01DX001 (sc), vehicle: olive oil, sesame oil, peanut oil 98 % of control | dose: 400.0 mg/kg/injection, schedule: Q01DX001 (sc), vehicle: olive oil, sesame oil, peanut oil 108 % of control

O=C(C[n+]1ccc2c([N+](=O)[O-])cccc2c1)c1ccccc1
inactive: dose: 12.5 mg/kg/injection, schedule: Q04DX003 (ip), vehicle: Klucel (hydroxypropylcellulose) (HPC) 98 % of control | dose: 25.0 mg/kg/injection, schedule: Q04DX003 (ip), vehicle: Klucel (hydroxypropylcellulose) (HPC) 105 % of control | dose: 50.0 mg/kg/injection, schedule: Q04DX003 (ip), vehicle: Klucel (hydroxypropylcellulose) (HPC) 103 % of control | [6] 96 % of control

CCCCC(CCCC)NC(C)CO (centres undefined)
inactive: dose: 75.0 mg/kg/injection, schedule: Q01DX001 (ip), vehicle: saline 102 % of control

CC(=O)c1ccc(N=NC2C(=O)N(c3ccccc3)N=C2C)cc1 (centres undefined)
inactive: [1] 96 % of control | [2] 94 % of control | [3] 102 % of control

CC(C)C1C(C(N)=O)C(=O)OC1(C)C (centres undefined)
inactive: [1] 96 % of control | [2] 98 % of control | [3] 96 % of control

NC(=O)c1ccc[n+](CCO)c1
inactive: dose: 3.1 mg/kg/injection, schedule: Q01DX009 (ip), vehicle: saline 102 % of control | dose: 6.25 mg/kg/injection, schedule: Q01DX009 (ip), vehicle: saline 104 % of control | dose: 12.5 mg/kg/injection, schedule: Q01DX009 (ip), vehicle: saline 98 % of control | dose: 25.0 mg/kg/injection, schedule: Q01DX009 (ip), vehicle: saline 104 % of control | dose: 50.0 mg/kg/injection, schedule: Q01DX009 (ip), vehicle: saline 110 % of control | dose: 100.0 mg/kg/injection, schedule: Q01DX009 (ip), vehicle: saline 100 % of control | dose: 115.0 mg/kg/injection, schedule: Q01DX Z (ip), vehicle: saline 100 % of control | dose: 150.0 mg/kg/injection, schedule: Q04DX003 (ip), vehicle: saline 100 % of control | dose: 175.0 mg/kg/injection, schedule: Q01DX Z (ip), vehicle: saline 94 % of control | dose: 225.0 mg/kg/injection, schedule: Q04DX003 (ip), vehicle: saline 104 % of control | dose: 265.0 mg/kg/injection, schedule: Q01DX Z (ip), vehicle: saline 105 % of control | dose: 335.0 mg/kg/injection, schedule: Q04DX003 (ip), vehicle: saline 100 % of control | dose: 400.0 mg/kg/injection, schedule: Q01DX Z (ip), vehicle: saline 100 % of control

CC1CCCCC1O (centres undefined)
inactive: [4] 102 % of control | [5] 92 % of control

O=C1C=C(C2OC(CO)C(O)C2O)C(=O)N1 (centres undefined)
inactive: dose: 6.0 mg/kg/injection, schedule: Q01DX015 (ip), vehicle: saline 113 % of control | dose: 6.0 mg/kg/injection, schedule: Q01DX Z (ip), vehicle: saline 115 % of control | dose: 6.2 mg/kg/injection, schedule: Q01DX001 (ip), vehicle: saline 97 % of control | dose: 9.0 mg/kg/injection, schedule: Q01DX001 (ip), vehicle: saline 101 % of control | dose: 9.0 mg/kg/injection, schedule: Q01DX015 (ip), vehicle: saline 113 % of control | dose: 9.0 mg/kg/injection, schedule: Q01DX Z (ip), vehicle: saline 122 % of control | dose: 12.0 mg/kg/injection, schedule: Q01DX001 (ip), vehicle: saline 100 % of control | dose: 12.5 mg/kg/injection, schedule: Q01DX001 (ip), vehicle: saline 109 % of control | dose: 15.0 mg/kg/injection, schedule: Q01DX001 (ip), vehicle: saline 106 % of control | dose: 15.0 mg/kg/injection, schedule: Q01DX015 (ip), vehicle: saline 122 % of control | dose: 15.0 mg/kg/injection, schedule: Q01DX Z (ip), vehicle: saline 110 % of control

O=C(CCC(=O)Nc1ccc(Cl)c(Cl)c1)Nc1ccc(Cl)c(Cl)c1
inactive: [7] 93 % of control | [8] 89 % of control | [9] 104 % of control

CCOC(=O)C(C#N)=C1CCN(Cc2ccccc2)CC1
inactive: [1] 96 % of control | [2] 99 % of control | [3] 105 % of control

O=C1CN=C(c2ccccc2Cl)c2cc([N+](=O)[O-])ccc2N1
inactive: [7] 93 % of control | [8] 108 % of control | [9] 86 % of control

CN(C)C(=O)Sc1ccc([N+](=O)[O-])cc1Cl
inactive: [6] 107 % of control | [10] 101 % of control | dose: 400.0 mg/kg/injection, schedule: Q04DX003 (ip), vehicle: Klucel (hydroxypropylcellulose) (HPC) 101 % of control

O=[N+]([O-])c1cc([As](=O)(O)O)ccc1Cl
inactive: dose: 50.0 mg/kg/injection, schedule: Q01DX009 (ip), vehicle: Klucel (hydroxypropylcellulose) (HPC) 97 % of control | dose: 100.0 mg/kg/injection, schedule: Q01DX009 (ip), vehicle: Klucel (hydroxypropylcellulose) (HPC) 97 % of control | [6] 100 % of control | [10] 104 % of control

O=C(O)c1ccc2ccccc2c1C(=O)c1ccc(F)cc1
inactive: [7] 101 % of control | dose: 100.0 mg/kg/injection, schedule: Q04DX003 (ip), vehicle: other 113 % of control | [8] 96 % of control | dose: 200.0 mg/kg/injection, schedule: Q04DX003 (ip), vehicle: other 97 % of control | [9] 92 % of control | dose: 400.0 mg/kg/injection, schedule: Q04DX003 (ip), vehicle: other 97 % of control
